# In patent publication US20090036466A1, “AMINO-BENZIMIDAZOLES DERIVATIVES AS INHIBITORS OF RESPIRATORY SYNCYTIAL VIRUS REPLICATION” (priority 2003, published 2009):
# Structures can show the parent of a compound that is named as a salt.
# Test system: Respiratory Syncytial Virus
# Experiment: microbe, parasite or virus in culture
# Type: cell-based
# Settings: human respiratory syncytial virus, 168 h; protection against RSV cytopathology in HeLa cells, MTT read-out seven days after infection; pEC50 = -log of EC50 in molar units
# Method: The percent protection against cytopathology caused by viruses (antiviral activity or EC50) achieved by tested compounds and their cytotoxicity (CC50) are both calculated from dose-response curves.
# Automated tetrazolium-based […] assays were used for determination of EC50 and CC50 of test compounds. Flat-bottom, 96-well plastic microtiter trays were filled with 180 μl of Eagle's Basal Medium, supplemented with 5% FCS (0% for FLU) and 20 mM Hepes buffer. Subsequently, stock solutions (7.8× final test concentration) of compounds were added in 45 μl volumes to a series of triplicate wells so as to allow simultaneous evaluation of their effects on virus- and mock-infected cells. Five five-fold dilutions were made directly in the microtiter trays using a robot system. Untreated virus controls, and HeLa cell controls were included in each test. Approximately 100 TCID50 of Respiratory Syncytial Virus was added to two of the three rows in a volume of 50 μl. The same volume of medium was added to the third row to measure the cytotoxicity of the compounds at the same concentrations as those used to measure the antiviral activity. After two hours of incubation, a suspension (4×10^5 cells/ml) of HeLa cells was added to all wells in a volume of 50 μl. The cultures were incubated at 37° C. in a 5% CO2 atmosphere. Seven days after infection the cytotoxicity and the antiviral activity was examined spectrophotometrically. To each well of the microtiter tray, 25 μl of a solution of MTT (3-(4,5-dimethylthiazol-2-yl)-2,5-diphenyltetrazolium bromide) was added. The trays were further incubated at 37° C. for 2 hours, after which the medium was removed from each cup. Solubilization of the formazan crystals was achieved by adding 100 μl 2-propanol. Complete dissolution of the formazan crystals were obtained after the trays have been placed on a plate shaker for 10 min. Finally, the absorbances were read in an eight-channel computer-controlled photometer (Multiskan MCC, Flow Laboratories) at two wavelengths (540 and 690 nm). The absorbance measured at 690 nm was automatically subtracted from the absorbance at 540 nm, so as to eliminate the effects of non-specific absorption.
row,Structure (SMILES),EC50 [µM]
1,"Cc1cc(C)c2nc(Nc3ccc(CN)cc3)n(Cc3nc(C)ccc3O)c2c1 [Compound 9, 2-[2-(4-aminomethyl-phenylamino)-4,6-dimethyl-benzoimidazol-1-ylmethyl]-6-methyl-pyridin-3-ol]",0.251
2,"Cc1cc(C)c2nc(NCCC(N)=O)n(Cc3nc(C)ccc3O)c2c1 [Compound 8, 3-[1-(3-hydroxy-6-methyl-pyridin-2-ylmethyl)-4,6-dimethyl-1H-benzoimidazol-2-ylamino]-propionamide]",0.158
3,"Cc1cc(C)c2nc(NCCCN3CCCCC3)n(Cc3nc(C)ccc3O)c2c1 [Compound 1, 2-[4,6-dimethyl-2-(3-piperidin-1-yl-propylamino)-benzoimidazol-1-ylmethyl]-6-methyl-pyridin-3-ol]",0.02
4,"CCOC(=O)CCNc1nc2c(C)cc(C)cc2n1Cc1nc(C)ccc1O [Compound 12, 3-[1-(3-hydroxy-6-methylpyridin-2-ylmethyl)-4,6-dimethyl-1H-benzoimidazol-2-ylamino]-propionic acid ethyl ester]",3.16
5,"Cc1cc(C)c2nc(NCC(O)CO)n(Cc3nc(C)ccc3O)c2c1 (stereo not drawn) [Compound 4, 3-[1-(3-hydroxy-6-methyl-pyridin-2-ylmethyl)-4,6-dimethyl-1H-benzoimidazol-2-ylamino]-propane-1,2-diol]",0.0398
6,"Cc1cc(C)c2nc(NCCCO)n(Cc3nc(C)ccc3O)c2c1 [Compound 7, 2-[2-(3-hydroxypropylamino)-4,6-dimethyl-benzoimidazol-1-ylmethyl]-6-methyl-pyridin-3-ol]",0.158

# Test system: not given
# Experiment: not given
# Settings: not given
row,Structure (SMILES),melting point [°C]
1,"Cc1cc(C)c2nc(NCCCO)n(Cc3nc(C)ccc3O)c2c1 (as salt: salt) [Compound 7, 2-[2-(3-hydroxypropylamino)-4,6-dimethyl-benzoimidazol-1-ylmethyl]-6-methyl-pyridin-3-ol]",170
2,"Cc1cc(C)c2nc(Nc3ccc(CN)cc3)n(Cc3nc(C)ccc3O)c2c1 (as salt: salt) [Compound 9, 2-[2-(4-aminomethyl-phenylamino)-4,6-dimethyl-benzoimidazol-1-ylmethyl]-6-methyl-pyridin-3-ol]",255
3,"CCOC(=O)CCNc1nc2c(C)cc(C)cc2n1Cc1nc(C)ccc1O (as salt: salt) [Compound 12, 3-[1-(3-hydroxy-6-methylpyridin-2-ylmethyl)-4,6-dimethyl-1H-benzoimidazol-2-ylamino]-propionic acid ethyl ester]",180
4,"Cc1cc(C)c2nc(NCCCN3CCCCC3)n(Cc3nc(C)ccc3O)c2c1 (as salt: salt) [Compound 1, 2-[4,6-dimethyl-2-(3-piperidin-1-yl-propylamino)-benzoimidazol-1-ylmethyl]-6-methyl-pyridin-3-ol]",> 260
5,"Cc1cc(C)c2nc(NCCC(N)=O)n(Cc3nc(C)ccc3O)c2c1 (as salt: salt) [Compound 8, 3-[1-(3-hydroxy-6-methyl-pyridin-2-ylmethyl)-4,6-dimethyl-1H-benzoimidazol-2-ylamino]-propionamide]",229
6,"Cc1cc(C)c2nc(NCC(O)CO)n(Cc3nc(C)ccc3O)c2c1 (stereo not drawn) (as salt: salt) [Compound 4, 3-[1-(3-hydroxy-6-methyl-pyridin-2-ylmethyl)-4,6-dimethyl-1H-benzoimidazol-2-ylamino]-propane-1,2-diol]",205
